Measured values: the NIST ThermoML archive (doi:10.1021/je050052+)

Test: excess molar enthalpy (molar enthalpy of mixing); xn = mol fraction of the nth substance listed
Settings: Liquid, Flow calorimetry

COC(=O)OC [dimethyl carbonate] + CCO
Settings	excess molar enthalpy [kcal/mol]
298.15 K, 1000 kPa, x1 = 0.05	0.1012
298.15 K, 1000 kPa, x1 = 0.1	0.1881
298.15 K, 1000 kPa, x1 = 0.15	0.2526
298.15 K, 1000 kPa, x1 = 0.2	0.3048
298.15 K, 1000 kPa, x1 = 0.25	0.3456
298.15 K, 1000 kPa, x1 = 0.3	0.3728
298.15 K, 1000 kPa, x1 = 0.35	0.3921
298.15 K, 1000 kPa, x1 = 0.4	0.4023
298.15 K, 1000 kPa, x1 = 0.45	0.4067
298.15 K, 1000 kPa, x1 = 0.5	0.4047
298.15 K, 1000 kPa, x1 = 0.55	0.3955
298.15 K, 1000 kPa, x1 = 0.6	0.3776
298.15 K, 1000 kPa, x1 = 0.65	0.3579
298.15 K, 1000 kPa, x1 = 0.7	0.3311
298.15 K, 1000 kPa, x1 = 0.75	0.2963
298.15 K, 1000 kPa, x1 = 0.8	0.2542
298.15 K, 1000 kPa, x1 = 0.85	0.2024
313.15 K, 100 kPa, x1 = 0.0521	0.0984
313.15 K, 100 kPa, x1 = 0.098	0.1854
313.15 K, 100 kPa, x1 = 0.1514	0.2672
313.15 K, 100 kPa, x1 = 0.1988	0.3216
313.15 K, 100 kPa, x1 = 0.2488	0.3685
313.15 K, 100 kPa, x1 = 0.3012	0.4033
313.15 K, 100 kPa, x1 = 0.3519	0.4273
313.15 K, 100 kPa, x1 = 0.4008	0.4431
313.15 K, 100 kPa, x1 = 0.4516	0.447
313.15 K, 100 kPa, x1 = 0.5007	0.4465
313.15 K, 100 kPa, x1 = 0.5515	0.4379
313.15 K, 100 kPa, x1 = 0.6003	0.4197
313.15 K, 100 kPa, x1 = 0.6506	0.3969
313.15 K, 100 kPa, x1 = 0.699	0.3683
313.15 K, 100 kPa, x1 = 0.7513	0.3253
313.15 K, 100 kPa, x1 = 0.7987	0.2835
313.15 K, 100 kPa, x1 = 0.8497	0.2287
313.15 K, 100 kPa, x1 = 0.9012	0.1572
313.15 K, 100 kPa, x1 = 0.9504	0.0808
313.15 K, 1000 kPa, x1 = 0.052	0.1039
313.15 K, 1000 kPa, x1 = 0.0979	0.1898
313.15 K, 1000 kPa, x1 = 0.1513	0.2697
313.15 K, 1000 kPa, x1 = 0.1986	0.3254
313.15 K, 1000 kPa, x1 = 0.2487	0.3721
313.15 K, 1000 kPa, x1 = 0.3011	0.4066
313.15 K, 1000 kPa, x1 = 0.3517	0.4296
313.15 K, 1000 kPa, x1 = 0.4006	0.4435
313.15 K, 1000 kPa, x1 = 0.4515	0.4496
313.15 K, 1000 kPa, x1 = 0.5006	0.4474
313.15 K, 1000 kPa, x1 = 0.5513	0.4373
313.15 K, 1000 kPa, x1 = 0.6002	0.4211
313.15 K, 1000 kPa, x1 = 0.6504	0.3971
313.15 K, 1000 kPa, x1 = 0.6988	0.3677
313.15 K, 1000 kPa, x1 = 0.7511	0.3259
313.15 K, 1000 kPa, x1 = 0.7986	0.2824
313.15 K, 1000 kPa, x1 = 0.8496	0.2284
313.15 K, 1000 kPa, x1 = 0.9011	0.1552
313.15 K, 1000 kPa, x1 = 0.9504	0.0781
313.15 K, 10000 kPa, x1 = 0.0517	0.09719
313.15 K, 10000 kPa, x1 = 0.1019	0.1904
313.15 K, 10000 kPa, x1 = 0.1505	0.2626
313.15 K, 10000 kPa, x1 = 0.2019	0.3232
313.15 K, 10000 kPa, x1 = 0.2517	0.3678
313.15 K, 10000 kPa, x1 = 0.2998	0.4004
313.15 K, 10000 kPa, x1 = 0.3503	0.4236
313.15 K, 10000 kPa, x1 = 0.3992	0.4379
313.15 K, 10000 kPa, x1 = 0.45	0.4441
313.15 K, 10000 kPa, x1 = 0.4991	0.4423
313.15 K, 10000 kPa, x1 = 0.5498	0.4331
313.15 K, 10000 kPa, x1 = 0.5987	0.4174
313.15 K, 10000 kPa, x1 = 0.6491	0.394
313.15 K, 10000 kPa, x1 = 0.7005	0.3625
313.15 K, 10000 kPa, x1 = 0.75	0.3257
313.15 K, 10000 kPa, x1 = 0.8004	0.279
313.15 K, 10000 kPa, x1 = 0.8489	0.2261
313.15 K, 10000 kPa, x1 = 0.9006	0.1567
313.15 K, 10000 kPa, x1 = 0.9501	0.0768
328.15 K, 1000 kPa, x1 = 0.05	0.1153
328.15 K, 1000 kPa, x1 = 0.1	0.2147
328.15 K, 1000 kPa, x1 = 0.15	0.2918
328.15 K, 1000 kPa, x1 = 0.2	0.3565
328.15 K, 1000 kPa, x1 = 0.25	0.4091
328.15 K, 1000 kPa, x1 = 0.3	0.4447
328.15 K, 1000 kPa, x1 = 0.35	0.4711
328.15 K, 1000 kPa, x1 = 0.4	0.4883
328.15 K, 1000 kPa, x1 = 0.45	0.4949
328.15 K, 1000 kPa, x1 = 0.5	0.4942
328.15 K, 1000 kPa, x1 = 0.55	0.4854
328.15 K, 1000 kPa, x1 = 0.6	0.47
328.15 K, 1000 kPa, x1 = 0.65	0.4467
328.15 K, 1000 kPa, x1 = 0.7	0.4113
328.15 K, 1000 kPa, x1 = 0.75	0.3653
328.15 K, 1000 kPa, x1 = 0.8	0.3136
328.15 K, 1000 kPa, x1 = 0.85	0.2508
328.15 K, 1000 kPa, x1 = 0.9	0.1742
328.15 K, 1000 kPa, x1 = 0.95	0.08759

COC(=O)OC [dimethyl carbonate] + CO
Settings	excess molar enthalpy [kcal/mol]
298.15 K, 1000 kPa, x2 = 0.25	0.2729
298.15 K, 1000 kPa, x2 = 0.3	0.2933
298.15 K, 1000 kPa, x2 = 0.35	0.3075
298.15 K, 1000 kPa, x2 = 0.4	0.315
298.15 K, 1000 kPa, x2 = 0.45	0.3163
298.15 K, 1000 kPa, x2 = 0.5	0.313
298.15 K, 1000 kPa, x2 = 0.55	0.3034
298.15 K, 1000 kPa, x2 = 0.6	0.2901
298.15 K, 1000 kPa, x2 = 0.65	0.2735
298.15 K, 1000 kPa, x2 = 0.7	0.2508
298.15 K, 1000 kPa, x2 = 0.75	0.2229
298.15 K, 1000 kPa, x2 = 0.8	0.1931
313.15 K, 100 kPa, x2 = 0.048	0.0748
313.15 K, 100 kPa, x2 = 0.1	0.1539
313.15 K, 100 kPa, x2 = 0.1492	0.2119
313.15 K, 100 kPa, x2 = 0.2014	0.2621
313.15 K, 100 kPa, x2 = 0.2506	0.2976
313.15 K, 100 kPa, x2 = 0.302	0.3238
313.15 K, 100 kPa, x2 = 0.3503	0.341
313.15 K, 100 kPa, x2 = 0.4001	0.3506
313.15 K, 100 kPa, x2 = 0.451	0.3535
313.15 K, 100 kPa, x2 = 0.4985	0.3472
313.15 K, 100 kPa, x2 = 0.5501	0.3409
313.15 K, 100 kPa, x2 = 0.6014	0.3255
313.15 K, 100 kPa, x2 = 0.6489	0.3073
313.15 K, 100 kPa, x2 = 0.6987	0.2839
313.15 K, 100 kPa, x2 = 0.7499	0.254
313.15 K, 100 kPa, x2 = 0.7992	0.2162
313.15 K, 100 kPa, x2 = 0.851	0.1699
313.15 K, 100 kPa, x2 = 0.95	0.0561
313.15 K, 1000 kPa, x2 = 0.0477	0.08505
313.15 K, 1000 kPa, x2 = 0.0994	0.158
313.15 K, 1000 kPa, x2 = 0.1484	0.2155
313.15 K, 1000 kPa, x2 = 0.2003	0.2637
313.15 K, 1000 kPa, x2 = 0.2493	0.2969
313.15 K, 1000 kPa, x2 = 0.3006	0.3229
313.15 K, 1000 kPa, x2 = 0.3487	0.3403
313.15 K, 1000 kPa, x2 = 0.3985	0.3519
313.15 K, 1000 kPa, x2 = 0.4493	0.3546
313.15 K, 1000 kPa, x2 = 0.5006	0.3496
313.15 K, 1000 kPa, x2 = 0.5485	0.3404
313.15 K, 1000 kPa, x2 = 0.5998	0.3247
313.15 K, 1000 kPa, x2 = 0.6504	0.3053
313.15 K, 1000 kPa, x2 = 0.7001	0.2815
313.15 K, 1000 kPa, x2 = 0.7512	0.2509
313.15 K, 1000 kPa, x2 = 0.8005	0.2149
313.15 K, 1000 kPa, x2 = 0.8501	0.1691
313.15 K, 1000 kPa, x2 = 0.9497	0.0534
313.15 K, 10000 kPa, x2 = 0.0477	0.08818
313.15 K, 10000 kPa, x2 = 0.0994	0.1621
313.15 K, 10000 kPa, x2 = 0.1484	0.2188
313.15 K, 10000 kPa, x2 = 0.2003	0.2659
313.15 K, 10000 kPa, x2 = 0.2493	0.2989
313.15 K, 10000 kPa, x2 = 0.3006	0.3252
313.15 K, 10000 kPa, x2 = 0.3487	0.3416
313.15 K, 10000 kPa, x2 = 0.3985	0.3512
313.15 K, 10000 kPa, x2 = 0.4493	0.3536
313.15 K, 10000 kPa, x2 = 0.5006	0.3509
313.15 K, 10000 kPa, x2 = 0.5485	0.3423
313.15 K, 10000 kPa, x2 = 0.5998	0.3285
313.15 K, 10000 kPa, x2 = 0.6504	0.3088
313.15 K, 10000 kPa, x2 = 0.7001	0.2842
313.15 K, 10000 kPa, x2 = 0.7512	0.2511
313.15 K, 10000 kPa, x2 = 0.8005	0.2158
313.15 K, 10000 kPa, x2 = 0.8501	0.1733
313.15 K, 10000 kPa, x2 = 0.9497	0.0561
328.15 K, 1000 kPa, x2 = 0.05	0.09171
328.15 K, 1000 kPa, x2 = 0.1	0.1733
328.15 K, 1000 kPa, x2 = 0.15	0.2349
328.15 K, 1000 kPa, x2 = 0.2	0.2867
328.15 K, 1000 kPa, x2 = 0.25	0.3264
328.15 K, 1000 kPa, x2 = 0.3	0.3555
328.15 K, 1000 kPa, x2 = 0.35	0.375
328.15 K, 1000 kPa, x2 = 0.4	0.3883
328.15 K, 1000 kPa, x2 = 0.45	0.3934
328.15 K, 1000 kPa, x2 = 0.5	0.3894
328.15 K, 1000 kPa, x2 = 0.55	0.3796
328.15 K, 1000 kPa, x2 = 0.6	0.3638
328.15 K, 1000 kPa, x2 = 0.65	0.3412
328.15 K, 1000 kPa, x2 = 0.7	0.3139
328.15 K, 1000 kPa, x2 = 0.75	0.279
328.15 K, 1000 kPa, x2 = 0.8	0.2383
328.15 K, 1000 kPa, x2 = 0.8509	0.1886
328.15 K, 1000 kPa, x2 = 0.95	0.0625
